# From US20240108623A1, “METHODS OF TREATING CANCER WITH POZIOTINIB” (BOARD OF REGENTS, THE UNIVERSITY OF TEXAS SYSTEM, priority 2021, published 2024)
# Key:
# Experiment in all cases: Ba/F3 cell drug screening, Cell Titer Glo
# Type in all cases: cell-based
# [1] = biological target: T1, EGFR A763insFQEA (Homo sapiens, UniProt P00533, INS763FQEA); conditions: Ba/F3 cells expressing EGFR A763insFQEA; 72 hours
# T1 construct: expressed in transfected cells; host or cells: Ba/F3 (retroviral, pBabe-Puro based vector)
# Description: (§1) Ba/F3 cell generation, drug screening, and IC50 approximations. Ba/F3 cells were obtained as a gift from Dr. Gordon Mills (MD Anderson Cancer Center), and maintained in RPMI (Sigma) containing 10% FBS, 1% penicillin/streptomycin, and 10 ng/ml recombinant mIL-3 (R&D Biosystems). To establish stable Ba/F3 cell lines, Ba/F3 cells were transduced with retroviruses containing mutant EGFR plasmids for 12-24 hours. Retroviruses were generated using Lipofectamine 2000 (Invitrogen) transfections of Phoenix 293T-ampho cells (Orbigen) with pBabe-Puro based vectors listed below in Table 6. Vectors were generated by GeneScript or Bioinnovatise using parental vectors from Addgene listed below in Table 6.
# (§2) After 48-72 hours of transduction, 2 μg/ml puromycin (Invitrogen) was added to Ba/F3 cell lines in complete RPMI. To select for EGFR positive cell lines, cells were stained with PE-EGFR (Biolegend) and sorted by FACS. After sorting, EGFR positive cells were maintained in RPMI containing 10% FBS, 1% penicillin/streptomycin, and 1 ng/ml EGF to support cell viability. Drug screening was performed as previously described^41,42. Shortly, cells were plated in 384-well plates (Greiner Bio-One) at 2000-3000 cells per well in technical triplicate. Seven different concentrations of TKIs or DMSO vehicle were added to reach a final volume of 40 μL per well. After 72 hours, 11p L of Cell Titer Glo (Promega) was added to each well. Plates were incubated for a minimum of 10 minutes, and bioluminescence was determined using a FLUOstar OPTIMA plate reader (BMG LABTECH). Raw bioluminescence values were normalized to DMSO control treated cells, and values were plotted in GraphPad Prism. Non-linear regressions were used to fit the normalized data with a variable slope, and IC50 values were determined by GraphPad prism by interpolation of concentrations at 50% inhibition. Drug screens were performed in technical triplicate on each plate and either duplicate or triplicate biological replicates. Mutant to WT ratios (Mut/WT) for each drug were calculated by dividing the IC50 values of mutant cell lines by the average IC50 value of Ba/F3 cells expressing WT EGFR supplemented with 10 ng/ml EGF for each drug. Statistical differences between groups were determined by ANOVA as described in the figure legends.
# [2] = biological target: T2, EGFR D770insNPG (Homo sapiens, UniProt P00533, INS770NPG); conditions: Ba/F3 cells expressing EGFR D770insNPG; 72 hours
# T2 construct: expressed in transfected cells; host or cells: Ba/F3 (retroviral, pBabe-Puro based vector)
# Description: as §1, §2
# [3] = biological target: T3, EGFR Ex19del L718V (Homo sapiens, UniProt P00533, DEL746-750/L718V); conditions: Ba/F3 cells expressing EGFR Ex19del L718V; 72 hours
# T3 construct: expressed in transfected cells; host or cells: Ba/F3 (murine pro-B cells), retroviral transduction with pBabe-Puro based vectors
# Description: as §1, §2
# [4] = biological target: T4, EGFR Ex19del T790M L718V (Homo sapiens, UniProt P00533, DEL746-750/L718V/T790M); conditions: Ba/F3 cells expressing EGFR Ex19del T790M L718V; 72 hours
# T4 construct: expressed in transfected cells; host or cells: Ba/F3 (retroviral transduction, pBabe-Puro based vectors)
# Description: as §1, §2
# [5] = biological target: T5, EGFR Ex19del/L792H (Homo sapiens, UniProt P00533, DEL746-750/L792H); conditions: Ba/F3 cells expressing EGFR Ex19del/L792H; 72 hours
# T5 construct: expressed in transfected cells; host or cells: Ba/F3 (retroviral transduction, pBabe-Puro based vectors)
# Description: as §1, §2
# [6] = biological target: T6, EGFR G719S (Homo sapiens, UniProt P00533, G719S); conditions: Ba/F3 cells expressing EGFR G719S; 72 hours
# T6 construct: expressed in transfected cells; host or cells: Ba/F3 (retroviral transduction, pBabe-Puro based vectors)
# Description: as §1, §2
# [7] = biological target: T7, EGFR G724S T790M (Homo sapiens, UniProt P00533, G724S/T790M); conditions: Ba/F3 cells expressing EGFR G724S T790M; 72 hours
# T7 construct: expressed in transfected cells; host or cells: Ba/F3 (retroviral transduction, pBabe-Puro based vectors)
# Description: as §1, §2
# [8] = biological target: T8, EGFR H773insNPH (Homo sapiens, UniProt P00533, INS773NPH); conditions: Ba/F3 cells expressing EGFR H773insNPH; 72 hours
# T8 construct: expressed in transfected cells; host or cells: Ba/F3 (retroviral, pBabe-Puro based vector)
# Description: as §1, §2
# [9] = biological target: T9, EGFR K754E (Homo sapiens, UniProt P00533, K754E); conditions: Ba/F3 cells expressing EGFR K754E; 72 hours
# T9 construct: expressed in transfected cells; host or cells: Ba/F3 (retroviral, pBabe-Puro based vector)
# Description: as §1, §2
# [10] = biological target: T10, EGFR L718Q (Homo sapiens, UniProt P00533, L718Q); conditions: Ba/F3 cells expressing EGFR L718Q; 72 hours
# T10 construct: expressed in transfected cells; host or cells: Ba/F3 (retroviral transduction, pBabe-Puro based vectors)
# Description: as §1, §2
# [11] = biological target: T11, EGFR L718V (Homo sapiens, UniProt P00533, L718V); conditions: Ba/F3 cells expressing EGFR L718V; 72 hours
# T11 construct: expressed in transfected cells; host or cells: Ba/F3 (retroviral transduction, pBabe-Puro based vectors)
# Description: as §1, §2
# [12] = biological target: T12, EGFR L858R T790M L792H (Homo sapiens, UniProt P00533, L792H/L858R/T790M); conditions: Ba/F3 cells expressing EGFR L858R T790M L792H; 72 hours
# T12 construct: expressed in transfected cells; host or cells: Ba/F3 (retroviral transduction, pBabe-Puro based vectors)
# Description: as §1, §2
# [13] = biological target: T13, EGFR L861R (Homo sapiens, UniProt P00533, L861R); conditions: Ba/F3 cells expressing EGFR L861R; 72 hours
# T13 construct: expressed in transfected cells; host or cells: Ba/F3 (retroviral, pBabe-Puro based vector; created by GeneScript from EGFR WT)
# Description: as §1, §2
# [14] = biological target: T14, EGFR N771dupN (Homo sapiens, UniProt P00533, DUP771-771); conditions: Ba/F3 cells expressing EGFR N771dupN; 72 hours
# T14 construct: expressed in transfected cells; host or cells: Ba/F3 (retroviral, pBabe-Puro based vector)
# Description: as §1, §2
# [15] = biological target: T15, EGFR S768I/T790M (Homo sapiens, UniProt P00533, S768I/T790M); conditions: Ba/F3 cells expressing EGFR S768I/T790M; 72 hours
# T15 construct: expressed in transfected cells; host or cells: Ba/F3 (retroviral transduction, pBabe-Puro based vectors)
# Description: as §1, §2
# [16] = biological target: T16, EGFR S768I/V769L (Homo sapiens, UniProt P00533, S768I/V769L); conditions: Ba/F3 cells expressing EGFR S768I/V769L; 72 hours
# T16 construct: host or cells: Ba/F3 (retroviral transduction, pBabe-Puro based vectors)
# Description: as §1, §2
smiles,measurement,setting,value
C=CC(=O)N1CCC(Oc2cc3c(Nc4ccc(Cl)c(Cl)c4F)ncnc3cc2OC)CC1 [Poziotinib],Response of Cells Comprising Classical-Like EGFR Mutations to Second-Generation TKIs,[1],0.06955
same,Response of Cells Comprising Ex20ins EGFR Mutations to Poziotinib,[2],0.2889
same,Response of Cells Comprising PACC EGFR Mutations to Second-Generation TKIs,[3],0.003363
same,Response of Cells Comprising T790M-like-S EGFR Mutations to Second-Generation TKIs,[4],15.89
same,Response of Cells Comprising PACC EGFR Mutations to Second-Generation TKIs,[5],0.3177
same,Response of Cells Comprising PACC EGFR Mutations to Second-Generation TKIs,[6],0.04616
same,Response of Cells Comprising T790M-like-R EGFR Mutations to Second-Generation TKIs,[7],2.924
same,Response of Cells Comprising Ex20ins EGFR Mutations to Poziotinib,[8],0.3855
same,Response of Cells Comprising Classical-Like EGFR Mutations to Second-Generation TKIs,[9],0.009588
same,Response of Cells Comprising PACC EGFR Mutations to Second-Generation TKIs,[10],0.1927
same,Response of Cells Comprising PACC EGFR Mutations to Second-Generation TKIs,[11],0.2403
same,Response of Cells Comprising T790M-like-S EGFR Mutations to Second-Generation TKIs,[12],56.36
same,Response of Cells Comprising Classical-Like EGFR Mutations to Second-Generation TKIs,[13],0.01648
same,Response of Cells Comprising Ex20ins EGFR Mutations to Poziotinib,[14],0.04003
same,Response of Cells Comprising T790M-like-S EGFR Mutations to Second-Generation TKIs,[15],2.935
same,Response of Cells Comprising PACC EGFR Mutations to Second-Generation TKIs,[16],0.04206
